In brackets after ≈: the same amount, converted by molar mass.
Key:
Bacillus subtilis = assay: Antibacterial activity against Bacillus subtilis ATCC 10907 by microdilution technique; type: functional
Penicillium ochrochloron = assay: Antifungal activity against Penicillium ochrochloron ATCC 9112 by microdilution technique; type: functional
Salmonella enteritidis = assay: Antibacterial activity against Salmonella enteritidis by microdilution technique; type: functional, Salmonella enterica subsp. enterica serovar Enteritidis; settings: Salmonella enterica
Aspergillus ochraceus = assay: Antifungal activity against Aspergillus ochraceus ATCC 12066 by microdilution technique; type: functional
Pseudomonas tolaasii = assay: Antibacterial activity against Pseudomonas tolaasii by microdilution technique; type: functional
Escherichia coli = assay: Antibacterial activity against Escherichia coli ATCC 35210 by microdilution technique; type: functional
Micrococcus luteus = assay: Antibacterial activity against Micrococcus flavus ATCC 10240 by microdilution technique; type: functional
Fusarium tricinctum = assay: Antifungal activity against Fusarium tricinctum CBS 514478 by microdilution technique; type: functional
Talaromyces funiculosus = assay: Antifungal activity against Penicillium funiculosum ATCC 36839 by microdilution technique; type: functional
Aspergillus niger = assay: Antifungal activity against Aspergillus niger ATCC 6275 by microdilution technique; type: functional
Trichoderma viride = assay: Antifungal activity against Trichoderma viride IAM 5061 by microdilution technique; type: functional
[1] = system: Staphylococcus epidermidis; assay: Antibacterial activity against Staphylococcus epidermidis ATCC 12228 by microdilution technique; type: functional
Alternaria alternata = assay: Antifungal activity against Alternaria alternata DSM 2006 by microdilution technique; type: functional
Aspergillus flavus = assay: Antifungal activity against Aspergillus flavus ATCC 9643 by microdilution technique; type: functional

MIC (Bacillus subtilis) [µg/mL]	MIC (Penicillium ochrochloron) [µg/mL]	MIC (Salmonella enteritidis) [µg/mL]	MIC (Aspergillus ochraceus) [µg/mL]	MIC (Pseudomonas tolaasii) [µg/mL]	MIC (Escherichia coli) [µg/mL]	MIC (Micrococcus luteus) [µg/mL]	MIC (Fusarium tricinctum) [µg/mL]	MIC (Talaromyces funiculosus) [µg/mL]	MIC (Aspergillus niger) [µg/mL]	Structure (SMILES)	MBC (Bacillus subtilis) [µg/mL]	MFC (Penicillium ochrochloron) [µg/mL]	MBC (Salmonella enteritidis) [µg/mL]	MFC (Aspergillus ochraceus) [µg/mL]	MBC (Pseudomonas tolaasii) [µg/mL]	MBC (Escherichia coli) [µg/mL]	MBC (Micrococcus luteus) [µg/mL]	MFC (Fusarium tricinctum) [µg/mL]	MFC (Talaromyces funiculosus) [µg/mL]	MFC (Aspergillus niger) [µg/mL]	also measured
0.2 (≈ 0.526 µM)	0.1 (≈ 0.263 µM)	0.3 (≈ 0.789 µM)	0.1 (≈ 0.263 µM)	0.2 (≈ 0.526 µM)	0.2 (≈ 0.526 µM)	0.2 (≈ 0.526 µM)	0.1 (≈ 0.263 µM)	0.2 (≈ 0.526 µM)	0.2 (≈ 0.526 µM)	C=C(C(=O)O[C@H]1C/C(C)=C/CC/C(CO)=C/[C@H]2OC(=O)[C@H](C)[C@H]12)C(O)CO (stereo partly drawn)	0.2 (≈ 0.526 µM)	0.2 (≈ 0.526 µM)	0.3 (≈ 0.789 µM)	0.2 (≈ 0.526 µM)	0.3 (≈ 0.789 µM)	0.3 (≈ 0.789 µM)	0.3 (≈ 0.789 µM)	0.2 (≈ 0.526 µM)	0.3 (≈ 0.789 µM)	0.3 (≈ 0.789 µM)	MFC (Trichoderma viride): 0.3 µg/mL (≈ 0.789 µM); MIC (Trichoderma viride): 0.2 µg/mL (≈ 0.526 µM); MBC [1]: 0.4 µg/mL (≈ 1.05 µM); MIC [1]: 0.4 µg/mL (≈ 1.05 µM); MFC (Alternaria alternata): 0.2 µg/mL (≈ 0.526 µM); MIC (Alternaria alternata): 0.1 µg/mL (≈ 0.263 µM); MFC (Aspergillus flavus): 0.2 µg/mL (≈ 0.526 µM); MIC (Aspergillus flavus): 0.1 µg/mL (≈ 0.263 µM)
0.2 (≈ 0.473 µM)	0.1 (≈ 0.237 µM)	0.3 (≈ 0.71 µM)	0.1 (≈ 0.237 µM)	0.2 (≈ 0.473 µM)	0.3 (≈ 0.71 µM)	0.2 (≈ 0.473 µM)	0.2 (≈ 0.473 µM)	0.2 (≈ 0.473 µM)	0.2 (≈ 0.473 µM)	CC(=O)OC/C=C(/CO)C(=O)O[C@H]1C/C(C)=C/CC/C(CO)=C/[C@H]2OC(=O)[C@H](C)[C@H]12	0.3 (≈ 0.71 µM)	0.2 (≈ 0.473 µM)	0.3 (≈ 0.71 µM)	0.2 (≈ 0.473 µM)	0.3 (≈ 0.71 µM)	0.3 (≈ 0.71 µM)	0.3 (≈ 0.71 µM)	0.3 (≈ 0.71 µM)	0.3 (≈ 0.71 µM)	0.3 (≈ 0.71 µM)	MFC (Trichoderma viride): 0.3 µg/mL (≈ 0.71 µM); MIC (Trichoderma viride): 0.2 µg/mL (≈ 0.473 µM); MBC [1]: 0.5 µg/mL (≈ 1.18 µM); MIC [1]: 0.4 µg/mL (≈ 0.947 µM); MFC (Alternaria alternata): 0.3 µg/mL (≈ 0.71 µM); MIC (Alternaria alternata): 0.2 µg/mL (≈ 0.473 µM); MFC (Aspergillus flavus): 0.2 µg/mL (≈ 0.473 µM); MIC (Aspergillus flavus): 0.2 µg/mL (≈ 0.473 µM)
0.2 (≈ 0.526 µM)	0.3 (≈ 0.789 µM)	0.4 (≈ 1.05 µM)	0.2 (≈ 0.526 µM)	0.4 (≈ 1.05 µM)	0.4 (≈ 1.05 µM)	0.2 (≈ 0.526 µM)	0.2 (≈ 0.526 µM)	0.3 (≈ 0.789 µM)	0.2 (≈ 0.526 µM)	C=C(CCO)C(=O)O[C@H]1C[C@]2(C)C([C@H](C=O)CC[C@H]2O)[C@H]2OC(=O)[C@H](C)[C@H]12 (stereo partly drawn)	0.3 (≈ 0.789 µM)	0.4 (≈ 1.05 µM)	0.4 (≈ 1.05 µM)	0.3 (≈ 0.789 µM)	0.5 (≈ 1.31 µM)	0.4 (≈ 1.05 µM)	0.3 (≈ 0.789 µM)	0.3 (≈ 0.789 µM)	0.4 (≈ 1.05 µM)	0.3 (≈ 0.789 µM)	MFC (Trichoderma viride): 0.4 µg/mL (≈ 1.05 µM); MIC (Trichoderma viride): 0.3 µg/mL (≈ 0.789 µM); MBC [1]: 0.5 µg/mL (≈ 1.31 µM); MIC [1]: 0.4 µg/mL (≈ 1.05 µM); MFC (Alternaria alternata): 0.3 µg/mL (≈ 0.789 µM); MIC (Alternaria alternata): 0.2 µg/mL (≈ 0.526 µM); MFC (Aspergillus flavus): 0.3 µg/mL (≈ 0.789 µM); MIC (Aspergillus flavus): 0.2 µg/mL (≈ 0.526 µM)
0.2 (≈ 0.549 µM)	0.1 (≈ 0.274 µM)	0.3 (≈ 0.823 µM)	0.1 (≈ 0.274 µM)	0.3 (≈ 0.823 µM)	0.2 (≈ 0.549 µM)	0.2 (≈ 0.549 µM)	0.2 (≈ 0.549 µM)	0.2 (≈ 0.549 µM)	0.2 (≈ 0.549 µM)	C=C(CCO)C(=O)O[C@H]1C/C(C)=C/CC/C(CO)=C/[C@H]2OC(=O)[C@H](C)[C@H]12	0.2 (≈ 0.549 µM)	0.2 (≈ 0.549 µM)	0.3 (≈ 0.823 µM)	0.2 (≈ 0.549 µM)	0.3 (≈ 0.823 µM)	0.2 (≈ 0.549 µM)	0.3 (≈ 0.823 µM)	0.3 (≈ 0.823 µM)	0.3 (≈ 0.823 µM)	0.3 (≈ 0.823 µM)	MFC (Trichoderma viride): 0.3 µg/mL (≈ 0.823 µM); MIC (Trichoderma viride): 0.2 µg/mL (≈ 0.549 µM); MBC [1]: 0.4 µg/mL (≈ 1.1 µM); MIC [1]: 0.4 µg/mL (≈ 1.1 µM); MFC (Alternaria alternata): 0.3 µg/mL (≈ 0.823 µM); MIC (Alternaria alternata): 0.2 µg/mL (≈ 0.549 µM); MFC (Aspergillus flavus): 0.2 µg/mL (≈ 0.549 µM); MIC (Aspergillus flavus): 0.1 µg/mL (≈ 0.274 µM)
0.2 (≈ 0.526 µM)	0.3 (≈ 0.789 µM)	0.4 (≈ 1.05 µM)	0.2 (≈ 0.526 µM)	0.2 (≈ 0.526 µM)	0.4 (≈ 1.05 µM)	0.2 (≈ 0.526 µM)	0.2 (≈ 0.526 µM)	0.3 (≈ 0.789 µM)	0.2 (≈ 0.526 µM)	C=C(CCO)C(=O)O[C@H]1C[C@]2(C)C([C@H]3OC(=O)[C@H](C)[C@H]13)[C@@H](C=O)CC[C@H]2O (stereo partly drawn)	0.3 (≈ 0.789 µM)	0.4 (≈ 1.05 µM)	0.4 (≈ 1.05 µM)	0.3 (≈ 0.789 µM)	0.3 (≈ 0.789 µM)	0.4 (≈ 1.05 µM)	0.3 (≈ 0.789 µM)	0.3 (≈ 0.789 µM)	0.4 (≈ 1.05 µM)	0.3 (≈ 0.789 µM)	MFC (Trichoderma viride): 0.5 µg/mL (≈ 1.31 µM); MIC (Trichoderma viride): 0.4 µg/mL (≈ 1.05 µM); MBC [1]: 0.5 µg/mL (≈ 1.31 µM); MIC [1]: 0.4 µg/mL (≈ 1.05 µM); MFC (Alternaria alternata): 0.3 µg/mL (≈ 0.789 µM); MIC (Alternaria alternata): 0.2 µg/mL (≈ 0.526 µM); MFC (Aspergillus flavus): 0.3 µg/mL (≈ 0.789 µM); MIC (Aspergillus flavus): 0.2 µg/mL (≈ 0.526 µM)
	2 (≈ 4.81 µM)		1.5 (≈ 3.6 µM)				0.2 (≈ 0.481 µM)	2 (≈ 4.81 µM)	1.5 (≈ 3.6 µM)	Clc1ccc(COC(Cn2ccnc2)c2ccc(Cl)cc2Cl)c(Cl)c1 (stereo not drawn) [MICONAZOLE]		5 (≈ 12 µM)		4 (≈ 9.61 µM)				1 (≈ 2.4 µM)	5 (≈ 12 µM)	4 (≈ 9.61 µM)	MFC (Trichoderma viride): 2 µg/mL (≈ 4.81 µM); MIC (Trichoderma viride): 2 µg/mL (≈ 4.81 µM); MFC (Alternaria alternata): 1 µg/mL (≈ 2.4 µM); MIC (Alternaria alternata): 0.2 µg/mL (≈ 0.481 µM); MFC (Aspergillus flavus): 2 µg/mL (≈ 4.81 µM); MIC (Aspergillus flavus): 0.5 µg/mL (≈ 1.2 µM)

Structure (SMILES)	MIC (Bacillus subtilis) [µg/mL]	MIC (Penicillium ochrochloron) [µg/mL]	MIC (Salmonella enteritidis) [µg/mL]	MIC (Aspergillus ochraceus) [µg/mL]	MIC (Pseudomonas tolaasii) [µg/mL]	MIC (Escherichia coli) [µg/mL]	MIC (Micrococcus luteus) [µg/mL]	MIC (Fusarium tricinctum) [µg/mL]	MIC (Talaromyces funiculosus) [µg/mL]	MIC (Aspergillus niger) [µg/mL]	MBC (Bacillus subtilis) [µg/mL]	MFC (Penicillium ochrochloron) [µg/mL]	MBC (Salmonella enteritidis) [µg/mL]	MFC (Aspergillus ochraceus) [µg/mL]	MBC (Pseudomonas tolaasii) [µg/mL]	MBC (Escherichia coli) [µg/mL]	MBC (Micrococcus luteus) [µg/mL]	MFC (Fusarium tricinctum) [µg/mL]	MFC (Talaromyces funiculosus) [µg/mL]	MFC (Aspergillus niger) [µg/mL]	also measured
CN[C@@H]1[C@H](O[C@H]2[C@H](O[C@H]3[C@H](O)[C@@H](O)[C@H](N=C(N)N)[C@@H](O)[C@@H]3N=C(N)N)O[C@@H](C)[C@]2(O)C=O)O[C@@H](CO)[C@H](O)[C@H]1O (stereo in doubt) [STREPTOMYCIN]	0.5 (≈ 0.86 µM)		1 (≈ 1.72 µM)		1 (≈ 1.72 µM)	0.5 (≈ 0.86 µM)	0.5 (≈ 0.86 µM)				0.5 (≈ 0.86 µM)		1 (≈ 1.72 µM)		2 (≈ 3.44 µM)	1 (≈ 1.72 µM)	1 (≈ 1.72 µM)				MBC [1]: 1 µg/mL (≈ 1.72 µM); MIC [1]: 1 µg/mL (≈ 1.72 µM)

Source: ChEMBL document CHEMBL1141341, “Minor sesquiterpene lactones from Centaurea pullata and their antimicrobial activity” (2007)
